In US9399028B2, “Treatment of drug resistant cancer” (ROCKEFELLER UNIVERSITY (THE), priority 2012, dated 2016):
Counter-ions that a name gives are not always drawn.

Key:
[1] = test system: ApoE; test: ApoE expression in vivo (western blot, qRT-PCR) in mouse tissues, white blood cells and tumors; conditions: for ApoE protein expression in systemic adipose, lung, and brain tissues: chow 20 mg/kg for 10 days, western blot; for ApoE transcript levels in circulating white blood cells: diet 20 mg/kg for 10 days
Description: FIG. 29A-K. Therapeutic Delivery of LXR Agonists Upregulates Melanoma-Derived and Systemic ApoE Expression. (FIG. 29A-FIG. 29B) ApoE expression levels, quantified by qRT-PCR, in subcutaneous tumors formed by B16F10 mouse melanoma cells injected into C57BL/6 mice. After 5-mm3 tumor formation, mice were fed a control diet or diet containing GW3965 (20 mg/kg) (FIG. 29A) or T0901317 (20 mg/kg) (FIG. 29B) for 7 days. n=3-4. (FIG. 29C-FIG. 29E) ApoE transcript expression in primary tumors (FIG. 29C), lung metastases (FIG. 29D), and brain metastases (FIG. 29E) formed by MeWo human melanoma cells grafted onto NOD Scid mice that were administered control chow or chow supplemented with GW3965 (20 mg/kg). ApoE levels were assessed on day 35 (FIG. 29C), day 153 (FIG. 29D), and day 34 (FIG. 29E) post-injection of the cancer cells. n=3-5. (FIG. 29F) Relative expression levels of LXRα, LXRβ, and ApoE were determined by qRT-PCR in B16F10 mouse melanoma cells expressing a control hairpin or an shRNA targeting mouse LXRα (sh_mLXRα), mouse LXRβ (sh_mLXRβ), or mouse ApoE (sh_mApoE). (FIG. 29G-FIG. 29H) ApoE (FIG. 29G) and ABCA1 (FIG. 29H) mRNA levels, measured by qRT-PCR, in B16F10 cells expressing a control shRNA or shRNAs targeting mouse LXRβ or mouse ApoE. The cells were treated with DMSO or GW3965 at 5 μM for 48 hours. n=3. (FIG. 29I) ABCA1 mRNA levels, measured by qRT-PCR, in systemic white blood cells extracted from LXRα−/− or LXRβ−/− mice fed a control diet or a GW3965-supplemented diet (20 mg/kg) for 10 days. n=3-4. (FIG. 29J) Relative expression of ApoE mRNA, expressed as the frequency of SAGE tags, in mouse skin and lung tissues was determined using the public mSAGE Expression Matrix database available through the NCI-funded Cancer Genome Anatomy Project (CGAP). (FIG. 29K) Relative expression of ApoE mRNA, determined by qRT-PCR, in MeWo melanoma cells dissociated from lung metastatic nodules (LM2) or primary tumors relative to control unselected MeWo parental cells. n=3.
FIG. 30A-I. LXRβ Agonism Suppresses Melanoma Tumor Growth and Metastasis by Inducing Melanoma-Derived and Systemic ApoE Expression. […] (FIG. 30B) Quantification of ApoE protein expression based on western blots shown in (FIG. 30A). […] (FIG. 30C) Expression levels of ApoE, determined by qRT-PCR, in systemic white blood cells from mice fed a control diet or a diet supplemented with GW3965 or T0901317 at 20 mg/kg for 10 days. n=3-6. […] Once the tumors reached 5-10 mm3 in volume, mice were fed a control diet or a diet supplemented with GW3965 (20 mg/kg) for 7 days, after which final tumor volume was measured. […] (FIG. 30E) ApoE transcript levels, quantified by qRT-PCR, in systemic white blood cells extracted from LXRα−/− or LXRβ−/− mice fed a control diet or a GW3965-supplemented diet (20 mg/kg) for 10 days. n=3-5. […]

[2] = test system: human breast, pancreatic, renal, lung cancer and uveal melanoma cell lines; test: Trans-well matrigel invasion assay, other cancer types; format: cell-based
Description: The ability of cancer cells to invade through matrigel in vitro was tested by using a trans-well matrigel invasion chamber system (354480, BD Biosciences). Various cancer cell lines were serum-starved overnight in media containing 0.2% FBS. The following day, invasion chambers were pre-equilibrated prior to the assay by adding 0.5 mL of starvation media to the top and bottom wells. Meanwhile, cancer cells were trypsinized and viable cells were counted using the trypan blue dead cell exclusion dye. Cancer cells were then resuspended at a concentration of 1×10^5 cells/1 mL starvation media, and 0.5 mL of cell suspension, containing 5×10^4 cells, was seeded into each trans-well. […] The basal side of each insert was imaged using an inverted fluorescence microscope (Zeiss Axiovert 40 CFL) at 5× magnification, and the number of DAPI-positive cells was quantified using ImageJ.
The cells were serum starved for 16 hours in 0.2% FBS media in the presence of DMSO or GW3965. […] Meanwhile, cancer cells were trypsinized and viable cells were counted using trypan blue. […] The basal side of each insert was imaged using an inverted fluorescence microscope (Zeiss Axiovert 40 CFL) at 5× magnification, and the number of DAPI-positive cells was quantified using ImageJ.

Row | Compound | ApoE protein expression in systemic adipose, lung, and brain tissues [1] | ApoE transcript levels in circulating white blood cells [1] | tumor cell invasion in renal, pancreatic and lung cancer cells ([2]; RCC, PANC1, H460 cells, 1 μM for 72 hours) | tumor cell invasion across breast, renal cell and pancreatic cancer ([2]; recombinant ApoE3 100 μg/mL)
1 | O=S(=O)(c1ccccc1)N(CC(F)(F)F)c1ccc(C(O)(C(F)(F)F)C(F)(F)F)cc1 [T0901317 1] | significantly elevated | upregulated | – | –
2 | O=C(O)Cc1cccc(OCCCN(Cc2cccc(C(F)(F)F)c2Cl)CC(c2ccccc2)c2ccccc2)c1 [GW3965 2, 3-[3-[N-(2-Chloro-3-trifluoromethylbenzyl)-(2,2-diphenylethyl)amino]propyloxy]phenylacetic acid hydrochloride] | significantly elevated | upregulated | inhibition | –
3 | recombinant human ApoE3: recombinant human ApoE3 (4696, BioVision) | – | – | – | inhibited
